Test results taken from patent US20260263596A1, “Programming B Cells to Produce IL-27 to Treat Inflammatory Diseases” (Board of Regents, The University of Texas System, priority 2022, published 2026).
Entries after “also recorded” stand apart in the source; their conditions may differ.

Legend:
B cells [1] = test: IL-27 induction in B cells by innate priming followed by CD154 or αCD40 plus IL-21; assay type: cell-based, mouse; conditions: then CD154 or αCD40 plus IL-21; for priming of B cells for induction of Il27p28 and Ebi3: 30 μg/ml for 4 h; for IL-27 secretion / IL-27 induction by primed B cells: priming with CDN, compared with gold-standard LPS priming
STING [2] = conditions: cited from earlier work
STING [3] = target: STING (Homo sapiens, UniProt Q86WV6); conditions: relative to c-di-GMP; cited from earlier work
Chain of STING (Homo sapiens, UniProt Q86WV6) (Q86WV6 whole entry H232R, species assumed): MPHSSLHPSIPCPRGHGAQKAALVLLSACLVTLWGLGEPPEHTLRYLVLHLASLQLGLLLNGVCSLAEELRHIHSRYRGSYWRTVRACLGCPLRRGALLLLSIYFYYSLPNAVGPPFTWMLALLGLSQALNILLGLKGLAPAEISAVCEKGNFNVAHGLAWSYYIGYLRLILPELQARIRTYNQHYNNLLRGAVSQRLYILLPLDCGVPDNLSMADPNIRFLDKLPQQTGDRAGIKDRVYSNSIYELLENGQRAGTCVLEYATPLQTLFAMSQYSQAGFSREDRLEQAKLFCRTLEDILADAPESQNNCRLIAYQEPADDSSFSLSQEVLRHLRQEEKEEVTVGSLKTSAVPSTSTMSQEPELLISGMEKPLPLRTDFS

B cells [4] = conditions: cited from earlier work
ILC3s = test: IL-27 stimulation of in vitro amplified ILC3s, FACS; assay type: cell-based, C57 mice
Text: FIG. 5A-5C. […] ILC3s were sort enriched (70%) by surface markers (IL-7R+CD45+Lin−CD117+ST2−) from mesenteric lymph nodes and cultured in the presence of IL-2 and IL-7 (to promote ILC survival) as well as IL-1B plus IL-23 (to promote ILC3 proliferation)—CD117 and ST2 are preferentially, albeit not exclusively, expressed by ILC3s and ILC2s, respectively. After 7 d of culture, ILCs were amplified by >10-fold and accounted for >95% of all cells. After washing to remove cytokines, ILC3s were stimulated with nil, IL-1P/IL-23 (to promote basal IL-22 expression in ILC3s) or IL-27 for 12 h. Cells were analyzed by FACS for expression of (A) T-bet, NKp46 and (B) IL-22, IL-17A and IFNγ, as quantified in (C).
Analyze the impact of recombinant IL-27 (in vitro) and B-27 cells (in vivo) on ILC3 gene protein expression. Tg(Rorc-cre)34 (JAX #022791) and Rosa26fl-STOP-fl-EYFP (JAX #006148) mice will be crossed to generate TgRorc-creRosa26fl-STOP-fl-EYFP mice, which will allow us to sort purify EYFP+IL-7R+CD45+Lin−CD117+ST2−ILC3s. Sorted ILC3s will be cultured in the presence of IL-7 and IL-2, which promote ILC survival, and stimulated them with recombinant IL-27 for 0 h, 6 h, 12 h and 24 h.

[5] = tested on: STAT transcription factors; test: STAT activation by human IL-27; assay type: cell-based
[6] = enriched, in vitro amplified ILC3s from C57 mice, 12 h

cyclic GMP-AMP [cGAMP]
priming of B cells for induction of Il27p28 and Ebi3 (B cells [1]): sufficient
IL-27 secretion / IL-27 induction by primed B cells (B cells [1]): prime B cells for IL-27 induction by CD154; also recorded: at the same magnitude as those of IL-27 induced by the gold-standard condition

Nc1nc2c(ncn2[C@@H]2O[C@@H]3COP(=O)(O)O[C@H]4[C@@H](O)[C@H](n5cnc6c(=O)[nH]c(N)nc65)O[C@@H]4COP(=O)(O)O[C@H]3[C@H]2O)c(=O)[nH]1 [c-di-GMP, 3′-5′ c-di-GMP]
priming of B cells for induction of Il27p28 and Ebi3 (B cells [1]): sufficient
IL-27 secretion / IL-27 induction by primed B cells (B cells [1]): at the same magnitude as those of IL-27 induced by the gold-standard condition

Nc1nc2c(ncn2[C@@H]2O[C@H](CO)[C@@H](O)[C@H]2OP(=O)(O)OC[C@H]2O[C@@H](n3cnc4c(N)ncnc43)[C@H](O)[C@@H]2OP(=O)(O)O)c(=O)[nH]1 [2′5′-GpAp, linear GMP-AMP]
IL-27 secretion / IL-27 induction by primed B cells (B cells [1]): inefficient
STING activation (STING [2]): does not activate STING

Nc1ncnc2c1ncn2[C@@H]1O[C@@H]2COP(=O)(O)O[C@H]3[C@@H](O)[C@H](n4cnc5c(N)ncnc54)O[C@@H]3COP(=O)(O)O[C@H]2[C@H]1O [c-di-AMP, 3′-5′ c-di-AMP]
IL-27 secretion / IL-27 induction by primed B cells (B cells [1]): inefficient
affinity to STING (STING [3]): much lower affinity to STING than c-di-GMP

B1: IL-27: pleiotropic cytokine, heterodimer of IL-27p28 and EBI3 (protein, UniProt Q8NEV9 29-243; Q14213 21-229, looked up)
Interleukin-27 subunit alpha: FPRPPGRPQLSLQELRREFTVSLHLARKLLSEVRGQAHRFAESHLPGVNLYLLPLGEQLPDVSLTFQAWRRLSDPERLCFISTTLQPFHALLGGLGTQGRWTNMERMQLWAMRLDLRDLQRHLRFQVLAAGFNLPEEEEEEEEEEEEERKGLLPGALGSALQGPAQVSWPQLLSTYRLLHSLELVLSRAVRELLLLSKAGHSVWPLGFPTLSPQP
Interleukin-27 subunit beta: RKGPPAALTLPRVQCRASRYPIAVDCSWTLPPAPNSTSPVSFIATYRLGMAARGHSWPCLQQTPTSTSCTITDVQLFSMAPYVLNVTAVHPWGSSSSFVPFITEHIIKPDPPEGVRLSPLAERQLQVQWEPPGSWPFPEIFSLKYWIRYKRQGAARFHRVGPIEATSFILRAVRPRARYYVQVAAQDLTDYGELSDWSLPATATMSLGK
STAT1/STAT3 activation, T-bet expression and IFNγ gene signature in B cells (B cells [4]): induce STAT1/STAT3 activation, T-bet expression, and IFNγ gene signature
IFNγ in ILC3s (ILC3s; [6]): did not affect
IL-17 in ILC3s (ILC3s; [6]): reduced
expression of IL-22 in ILC3s (ILC3s; [6]): upregulated
expression of T-bet in ILC3s (ILC3s; [6]): upregulated
polarization of ILC3s to express T-bet and IL-22 (ILC3s; in vitro): polarizes ILC3s to express T-bet and IL-22; also recorded: can polarize ILC3s in vitro to express T-bet and IL-22

B2: human IL-27: human cytokine IL-27 (protein, UniProt Q8NEV9 29-243; Q14213 21-229, looked up)
Interleukin-27 subunit alpha: B1 Interleukin-27 subunit alpha
Interleukin-27 subunit beta: B1 Interleukin-27 subunit beta
activation of STAT transcription factors [5]: can activate STAT transcription factors
